Assay results as given in patent US20210139517A1, “BICYCLIC HETEROARYL COMPOUNDS AND USES THEREOF” (Revolution Medicines, Inc., priority 2019, published 2021).

Experiments:
[1] = tested on: SOS1 function in cells: cellular pERK in PC-9 cells (EGFR Ex19Del); test: pERK potency assay in PC-9 cells (AlphaLISA SureFire Ultra p-ERK1/2); type: cell-based; conditions: Homo sapiens, PC-9, 1 h, 1 hour incubation
Experimental: The purpose of this assay is tomeasure the ability of test compounds to inhibit SOS1 function in cells. SOS1 activates RAS proteins by catalyzing the conversion of RAS-GDP to RAS-GTP in response to receptor tyrosine kinase activation. […] The procedure described below measures the level of cellular pERK in response to test compounds in PC-9 cells (EGFR Ex19Del).
PC-9 cells were grown and maintained using media and procedures recommended by the ATCC. On the day prior to compound addition, cells were plated in 384-well cell culture plates (40 μL/well) and grown overnight in a 37° C., 5% CO2 incubator. Test compounds were prepared in 10, 3-fold dilutions in DMSO, with a top concentration of 10 mM. On the day of the assay, 40 nL of test compound was added to each well of cell culture plate using an Echo550 liquid handler (LabCyte). Concentrations of test compound were tested in duplicate with highest test concentration being 10 μM. After compound addition, cells were incubated for 1 hour at 37° C., 5% CO2. Following incubation, culture medium was removed and cells were washed once with phosphate buffered saline.
Cellular pERK level was determined using the AlphaLISA SureFire Ultra p-ERK1/2 Assay Kit (PerkinElmer). Cells were lysed in 25 μL lysis buffer, with shaking at 600 RPM at room temperature for 15 minutes. Lysate (10 μL) was transferred to a 384-well Opti-plate (PerkinElmer) and 5 μL acceptor mix was added. The plate was centrifuged at 1000 RPM for 1 minute, and incubated in the dark for 2 hours. Following this incubation, 5 μL of donor mix was added, the plate was sealed and centrifuged at 1000 RPM for 1 minute, and the mixture was incubated for 2 hours at room temperature. Signal was read on an Envision plate reader (PerkinElmer) using standard AlphaLISA settings. Analysis of raw data was carried out in Excel (Microsoft) and Prism (GraphPad). Signal was plotted vs. the decadal logarithm of compound concentration, and IC50 was determined by fitting a 4-parameter sigmoidal concentration response model.

[2] = molecular target: T1, SOS1 nucleotide exchange of wild-type KRAS (SOS1 catalytic domain residues 564-1049; KRAS residue 1-169) (Homo sapiens, UniProt Q07889); test: Inhibition of SOS1 nucleotide exchange activity of KRAS (TR-FRET); type: biochemical; conditions: SOS1 nucleotide exchange of wild-type KRAS; three replicates; four-parameter logistic fit; read-out: TR-FRET IC50
T1 sequence (Q07889 564-1049): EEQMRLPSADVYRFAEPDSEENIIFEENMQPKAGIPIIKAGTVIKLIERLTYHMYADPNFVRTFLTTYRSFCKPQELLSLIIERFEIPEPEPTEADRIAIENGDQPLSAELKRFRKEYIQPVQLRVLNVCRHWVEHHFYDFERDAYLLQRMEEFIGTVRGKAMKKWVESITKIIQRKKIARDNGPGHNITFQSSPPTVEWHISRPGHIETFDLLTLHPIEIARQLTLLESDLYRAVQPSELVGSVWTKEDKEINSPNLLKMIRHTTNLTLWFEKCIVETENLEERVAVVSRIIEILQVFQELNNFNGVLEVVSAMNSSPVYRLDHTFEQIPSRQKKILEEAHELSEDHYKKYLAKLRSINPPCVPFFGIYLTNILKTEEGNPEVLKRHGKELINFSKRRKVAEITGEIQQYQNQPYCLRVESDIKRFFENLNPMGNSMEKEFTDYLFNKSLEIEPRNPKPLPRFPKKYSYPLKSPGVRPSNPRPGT

[3] = molecular target: T2, SOS1 catalytic domain (residues 564-1049) (Homo sapiens, UniProt Q07889); test: SOS1 SPR binding affinity assay (Biacore 8K); conditions: avi-tagged SOS1 catalytic domain immobilized on streptavidin chip; equilibrium 1:1 binding fit; read-out: SOS1 SPR Equilibrium Kd
T2 sequence (Q07889 564-1049): T1 sequence (Q07889 564-1049)

Compound C[C@@H](Nc1ncnc2c1cc(N1CCOCC1)c(=O)n2C)c1cc(N)cc(C(F)(F)F)c1 [Example 12, 4-{[(1R)-1-[3-amino-5-(trifluoromethyl)phenyl]ethyl]amino}-8-methyl-6-(morpholin-4-yl)-7H,8H-pyrido[2,3-d]pyrimidin-7-one] has an IC50 [1] of 101 nM, an IC50 [2] of 13.6 nM and a Kd [3] of 7.94 nM.
C[C@@H](Nc1ncnc2c1cc(N1CCOCC1)c(=O)n2C)c1cccc(C(F)(F)F)c1 [Example 13, 8-methyl-6-(morpholin-4-yl)-4-{[(1R)-1-[3-(trifluoromethyl)phenyl]-ethyl]amino}-7H,8H-pyrido[2,3-d]pyrimidin-7-one] was tested, and the IC50 [1] was 321 nM, the IC50 [2] was 29.4 nM and the Kd [3] was 28.3 nM.
Compound CC(=O)N1CCC(c2cc3c(N[C@H](C)c4cc(C(F)(F)F)cc(N)c4F)ncnc3n(C)c2=O)CC1 [Example 15, 6-(1-acetyl-4-piperidyl)-4-[[(1R)-1-[3-amino-2-fluoro-5-(trifluoromethyl)phenyl]ethyl]amino]-8-methyl-pyrido[2,3-d]pyrimidin-7-one] has an IC50 [1] of 391 nM, an IC50 [2] of 90.4 nM and a Kd [3] of 168 nM.
Compound Cc1nc(N[C@H](C)c2cccc(C(F)F)c2F)c2cc(C3CCN(C)CC3F)c(=O)n(C)c2n1 (stereo partly drawn) [Example 18, 4-[[(1R)-1-[3-(difluoromethyl)-2-fluoro-phenyl]ethyl]amino]-6-(3-fluoro-1-methyl-4-piperidyl)-2,8-dimethyl-pyrido[2,3-d]pyrimidin-7-one] has an IC50 [1] of 190 nM, an IC50 [2] of 5.79 nM and a Kd [3] of 16 nM.
CC(=O)N1CCC(c2cc3c(N[C@H](C)c4cc(N)cc(C(F)(F)F)c4F)ncnc3n(C)c2=O)CC1 [Example 19, 6-(1-acetyl-4-piperidyl)-4-[[(1R)-1-[5-amino-2-fluoro-3-(trifluoromethyl)phenyl]ethyl]amino]-8-methyl-pyrido[2,3-d]pyrimidin-7-one] was tested, and the IC50 [1] was 49.2 nM, the IC50 [2] was 12.3 nM and the Kd [3] was 32.4 nM.
C[C@@H](Nc1ncnc2c1cc(-c1ccnnc1)c(=O)n2C)c1cccc(C(F)F)c1F [Example 21, (R)-4-((1-(3-(difluoromethyl)-2-fluorophenyl)ethyl)amino)-8-methyl-6-(pyridazin-4-yl)pyrido[2,3-d]pyrimidin-7(8H)-one] gave an IC50 [1] of 136 nM, an IC50 [2] of 18 nM and a Kd [3] of 32.7 nM.
In the case of Cc1nc(N[C@H](C)c2cccc(C(F)F)c2F)c2cc(C(=O)N3CCOCC3)c(=O)n(C)c2n1 [Example 26, 4-{[(1R)-1-[3-(difluoromethyl)-2-fluorophenyl]ethyl]amino}-2,8-dimethyl-6-(morpholine-4-carbonyl)-7H,8H-pyrido[2,3-d]pyrimidin-7-one], the IC50 [2] is reported as 70.2 nM and the Kd [3] is reported as 115 nM.
For C[C@@H](Nc1ncnc2c1cc(C(=O)N1CC3CCC1CO3)c(=O)n2C)c1cccc(C(F)F)c1F (some centres unmarked) [Example 26-18], the IC50 [2] was 78.6 nM and the Kd [3] was 150 nM.
C[C@@H](Nc1ncnc2c1cc(C(=O)N1CC3CCC(C1)O3)c(=O)n2C)c1cccc(C(F)F)c1F [Example 26-19] was tested, and the IC50 [2] was 65.4 nM and the Kd [3] was 148 nM.
Work on Cc1nc(N[C@H](C)c2cccc(C(F)F)c2F)c2cc(CN3CCOCC3)c(=O)n(C)c2n1 [Example 27, 4-{[(1R)-1-[3-(difluoromethyl)-2-fluorophenyl]ethyl]amino}-2,8-dimethyl-6-[(morpholin-4-yl)meth-yl]-7H,8H-pyrido[2,3-d]pyrimidin-7-one] yielded an IC50 [2] of 192 nM and a Kd [3] of 550 nM.
For C[C@@H](Nc1ncnc2c1cc(C1(O)CCS(=O)(=O)CC1)c(=O)n2C)c1cccc(C(F)F)c1F [Example 28, 4-(4-{[(1R)-1-[3-(difluoromethyl)-2-fluorophenyl]-ethyl]amino}-8-methyl-7-oxo-7H,8H-pyrido[2,3-d]pyrimidin-6-yl)-4-hydroxy-1λ^6-thiane-1,1-dione], the IC50 [2] was 20.6 nM and the Kd [3] was 45.1 nM.
C[C@@H](Nc1ncnc2c1cc(C1(F)CCS(=O)(=O)CC1)c(=O)n2C)c1cccc(C(F)F)c1F [Example 29, 4-(4-{[(1R)-1-[3-(difluoromethyl)-2-fluorophenyl]ethyl]amino}-8-methyl-7-oxo-7H,8H-pyrido[2,3-d]-pyrimidin-6-yl)-4-fluoro-1λ^6-thiane-1,1-dione] showed an IC50 [2] of 50.1 nM and a Kd [3] of 36 nM.
For C[C@@H](Nc1ncnc2c1cc(C1(N)CCOCC1)c(=O)n2C)c1cccc(C(F)F)c1F [Example 31, 6-(4-aminooxan-4-yl)-4-{[(1R)-1-[3-(difluoromethyl)-2-fluorophenyl]ethyl]amino}-8-methyl-7H,8H-pyrido-[2,3-d]pyrimidin-7-one], the IC50 [2] was 31.5 nM and the Kd [3] was 42.8 nM.
CO[C@]1(c2cc3c(N[C@H](C)c4cccc(C(F)F)c4F)ncnc3n(C)c2=O)CCN(C(C)=O)C1 [Example 32-19] gave an IC50 [2] of 8.82 nM and a Kd [3] of 6.92 nM.
C[C@@H](Nc1ncnc2c1cc(C1CC3(C1)CS(=O)(=O)C3)c(=O)n2C)c1cccc(C(F)F)c1F [Example 33, 6-(4-{[(1R)-1-[3-(difluoromethyl)-2-fluorophenyl]ethyl]amino}-8-methyl-7-oxo-7H,8H-pyrido[2,3-d]pyrimi-din-6-yl)-2λ^6-thiaspiro[3.3]heptane-2,2-dione] gave an IC50 [2] of 29.5 nM and a Kd [3] of 33.4 nM.
Work on C[C@@H](Nc1ncnc2c1cc(C1CCNCC1O)c(=O)n2C)c1cccc(C(F)F)c1F (stereo partly drawn) [Example 34, 4-(((R)-1-(3-(difluoromethyl)-2-fluorophenyl)ethyl)amino)-6-(3-hydroxypiperidin-4-yl)-8-methylpyrido[2,3-d]pyrimidin-7(8H)-one] yielded an IC50 [2] of 62.7 nM and a Kd [3] of 72.9 nM.
